# In patent US20250136553A1, “ACYLSULFONAMIDE KAT6A INHIBITORS” (Olema Pharmaceuticals, Inc., priority 2023, published 2025):
# Molecular target: human-KAT6A (MYST domain 507-778 aa) (Homo sapiens (Human), UniProt Q92794)
# Assay: KAT6A biochemical assay (TR-FRET)
# Conditions: @ 10 μM; reported where IC50 could not be determined; read-out: Percent inhibition at specific concentration (KAT6A)
# From the text: TR-FRET based methods were used for assaying compounds of the present invention for KAT6A enzyme inhibitory activity. TR-FRET is a homogeneous proximity assay where Europium-labelled anti-acetyl lysine antibody binds to the acetylated substrate labelled with biotin, which in turn binds to streptavidin-labelled APC fluorescence acceptor. Europium can transfer energy to APC in the complex and the interaction of two dye-labelled binding partners is detected by the energy transfer between a donor and an acceptor dye and the subsequent light emission by the acceptor dye. KAT6A transfer an acetyl group from acetyl CoA to lysine amino acids of histones/target proteins. […] The selected compound of the present invention and enzyme are incubated for 30 min on plate shaker at 300 rpm at 25° C. Next, 5 μL of substrate mix containing histone H4 peptide and acetyl-CoA in assay buffer is added to the plate. The final concentrations of H4 peptide and acetyl-CoA are 200 nM and 600 nM, respectively. Following 60 min reaction at 25° C. on plate shaker at 300 rpm, 5 μL of detection mix containing Europium-labelled anti-acetyl antibody and streptavidin-APC is added to the reaction wells. The plate is further incubated at 25° C. on shaker at 300 rpm and is read in TR-FRET mode (Ex:340 nm; Em: 615 nm and 665 nm) on a plate reader to achieve ˜5-7-fold activity. The percent inhibition was calculated from the ratio of the fluorescence (FL) intensities [(F665/F615)×10000) using the formula […]. IC50 values of the compounds were determined by fitting the dose-response data to sigmoidal curve fitting equation using Graph pad prism software V9.
# Sequence of human-KAT6A (MYST domain 507-778 aa) (Q92794 507-778): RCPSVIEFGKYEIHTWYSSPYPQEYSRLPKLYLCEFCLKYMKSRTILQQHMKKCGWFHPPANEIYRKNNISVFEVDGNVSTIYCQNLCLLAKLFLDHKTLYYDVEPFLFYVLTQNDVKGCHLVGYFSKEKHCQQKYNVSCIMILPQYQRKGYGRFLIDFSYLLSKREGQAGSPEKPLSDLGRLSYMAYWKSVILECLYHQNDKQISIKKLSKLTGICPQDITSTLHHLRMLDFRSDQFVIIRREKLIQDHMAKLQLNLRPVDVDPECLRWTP
row,inhibition at 10 µM,Compound
1,26%,"COc1cc(Cn2cccn2)cc(C(=O)NS(=O)(=O)c2c(OC)cccc2OC)c1 [Compound 6, 3-((1H-pyrazol-1-yl)methyl)-N-((2,6-dimethoxyphenyl)sulfonyl)-5-methoxybenzamide]"
2,13%,"COc1ccc(Cn2cccn2)cc1C(=O)NS(=O)(=O)c1cc(C(C)(C)C)ccc1OC [Compound 9, 5-((1H-pyrazol-1-yl)methyl)-N-((5-(tert-butyl)-2-methoxyphenyl)sulfonyl)-2-methoxybenzamide]"

# Same assay, conditions: KAT6A IC50 (nM), TR-FRET; histone H4 peptide 200 nM, acetyl-CoA 600 nM
row,Compound,IC50
1,"COc1cc(C(=O)NS(=O)(=O)c2c(OC)cccc2OC)ccc1Cn1cccn1 [Compound 14, 4-((1H-pyrazol-1-yl)methyl)-N-((2,6-dimethoxyphenyl)sulfonyl)-3-methoxybenzamide]",7 nM

# Same assay, conditions: TR-FRET; histone H4 peptide 200 nM, acetyl-CoA 600 nM; read-out: KAT6A IC50
row,IC50,Compound
1,35 nM,"CCOc1cccc(OC)c1S(=N)(=O)NC(=O)c1ccc(Cn2cccn2)c(OC)n1 (racemic) [Compound 294, 5-((1H-pyrazol-1-yl)methyl)-N-(2-ethoxy-6-methoxyphenylsulfonimidoyl)-6-methoxypicolinamide]"
2,39 nM,"COc1ccc(C(C)(C)O)cc1S(=N)(=O)NC(=O)c1ccc(Cn2cccn2)c(OC)n1 (racemic) [Compound 297, 5-((1H-pyrazol-1-yl)methyl)-N-(5-(2-hydroxypropan-2-yl)-2-methoxyphenylsulfonimidoyl)-6-methoxypicolinamide]"
3,25 nM,"COc1cc(OC)c(S(=N)(=O)NC(=O)c2ccc(Cn3cccn3)c(OC)c2)c(OC)c1 (racemic) [Compound 299, 4-((1H-pyrazol-1-yl)methyl)-3-methoxy-N-(2,4,6-trimethoxyphenylsulfonimidoyl)benzamide]"
4,17 nM,"COc1cccc(OC)c1S(=N)(=O)NC(=O)c1ccc(Cn2cccn2)c(OC)n1 (single isomer, unassigned) [Compound 243a]"
5,82 nM,"COc1cccc(OC)c1S(=N)(=O)NC(=O)c1ccc(Cn2cccn2)c(OC)n1 (single isomer, unassigned) [Compound 243b]"
6,39 nM,"COc1ccc(C(C)(C)C)cc1S(=O)(=O)NC(=O)c1ccc(Cn2cccn2)c(C)c1 [Compound 20, 4-((1H-pyrazol-1-yl)methyl)-N-((5-(tert-butyl)-2-methoxyphenyl)sulfonyl)-3-methylbenzamide]"
7,28 nM,"CCOc1cc(C(=O)NS(=O)(=O)c2cc(C(C)(C)C)ccc2OC)ccc1Cn1cccn1 [Compound 21, 4-((1H-pyrazol-1-yl)methyl)-N-((5-(tert-butyl)-2-methoxyphenyl)sulfonyl)-3-ethoxybenzamide]"
8,49 nM,"COc1cc(C(=O)NS(=O)(=O)c2ccccc2-c2ccccc2)ccc1Cn1cccn1 [Compound 22, 4-((1H-pyrazol-1-yl)methyl)-N-([1,1′-biphenyl]-2-ylsulfonyl)-3-methoxybenzamide]"
9,32 nM,"COc1cc(C(=O)NS(=O)(=O)c2cccc(O)c2)ccc1Cn1cccn1 [Compound 23, 4-((1H-pyrazol-1-yl)methyl)-N-((3-hydroxyphenyl)sulfonyl)-3-methoxybenzamide]"
10,12 nM,"COc1cc(C(=O)NS(=O)(=O)c2cc(Br)ccc2OC)ccc1Cn1cccn1 [Compound 24, 4-((1H-pyrazol-1-yl)methyl)-N-((5-bromo-2-methoxyphenyl)sulfonyl)-3-methoxybenzamide]"

# Further lines, the compound ahead of its results:
row,Compound,IC50
1,5-((1H-pyrazol-1-yl)methyl)-N-((5-(tert-butyl)-2-methoxyphenyl)sulfonyl)-4-methoxypyrimidine-2-carboxamide [Compound 264],12 nM
2,"COc1cc(Cn2cccn2)ccc1C(=O)NS(=O)(=O)c1c(OC)cccc1OC [Compound 1, 4-((1H-pyrazol-1-yl)methyl)-N-((2,6-dimethoxyphenyl)sulfonyl)-2-methoxybenzamide]",247 nM
3,"COc1cc(Cn2cccn2)ccc1C(=O)NS(=O)(=O)c1ccccc1OC [Compound 2, 4-((1H-pyrazol-1-yl)methyl)-2-methoxy-N-((2-methoxyphenyl)sulfonyl)benzamide]",741 nM
4,"CCc1ccc(OC)c(S(=O)(=O)NC(=O)c2ccc(Cn3cccn3)cc2OC)c1 [Compound 3, 4-((1H-pyrazol-1-yl)methyl)-N-((5-ethyl-2-methoxyphenyl)sulfonyl)-2-methoxybenzamide]",137 nM
5,COc1cc(Cn2cccn2)ccc1C(=O)NS(=O)(=O)c1cc(C(C)(C)C)ccc1OC [Compound 4],82 nM
6,"COc1cc(Cn2cccn2)ccc1C(=O)NS(=O)(=O)c1cc2c(cc1OC)CCC2 [Compound 5, 4-((1H-pyrazol-1-yl)methyl)-2-methoxy-N-((6-methoxy-2,3-dihydro-1H-inden-5-yl)sulfonyl)benzamide]",178 nM
7,"COc1ccc(C(C)(C)C)cc1S(=O)(=O)NC(=O)c1ccc(Cn2cccn2)cc1F [Compound 7, 4-((1H-pyrazol-1-yl)methyl)-N-((5-(tert-butyl)-2-methoxyphenyl)sulfonyl)-2-fluorobenzamide]",99 nM
8,"COc1cc(C(=O)NS(=O)(=O)c2ccc(C(C)(C)C)cc2OC)ccc1Cn1cccn1 [Compound 8, 4-((1H-pyrazol-1-yl)methyl)-N-((4-(tert-butyl)-2-methoxyphenyl)sulfonyl)-3-methoxybenzamide]",17 nM
9,"COc1cc(Cn2cccn2)ccc1C(=O)NS(=O)(=O)c1ccc(-n2cccn2)cc1OC [Compound 10, 4-((1H-pyrazol-1-yl)methyl)-2-methoxy-N-((2-methoxy-4-(1H-pyrazol-1-yl)phenyl)sulfonyl)benzamide]",1480 nM
10,"COc1cc(Cn2cccn2)ccc1C(=O)NS(=O)(=O)c1ccc(C(C)(C)C)cc1OC [Compound 11, 4-((1H-pyrazol-1-yl)methyl)-N-((4-(tert-butyl)-2-methoxyphenyl)sulfonyl)-2-methoxybenzamide]",500 nM
11,"COc1cccc(OC)c1S(=O)(=O)NC(=O)c1ccc(Cn2cccn2)c(F)c1 [Compound 12, 4-((1H-pyrazol-1-yl)methyl)-N-((2,6-dimethoxyphenyl)sulfonyl)-3-fluorobenzamide]",48 nM
12,"COc1ccc(C(C)(C)C)cc1S(=O)(=O)NC(=O)c1ccc(Cn2cccn2)c(F)c1 [Compound 13, 4-((1H-pyrazol-1-yl)methyl)-N-((5-(tert-butyl)-2-methoxyphenyl)sulfonyl)-3-fluorobenzamide]",47 nM
13,"COc1cc(C(=O)NS(=O)(=O)c2c(OC)cccc2OC)ccc1Cn1cccn1 [Compound 14, 4-((1H-pyrazol-1-yl)methyl)-N-((2,6-dimethoxyphenyl)sulfonyl)-3-methoxybenzamide]",32 nM
14,"COc1cc(Cn2cccn2)ccc1C(=O)NS(=O)(=O)c1cc2c(cc1OC)CCCC2 [Compound 15, 4-((1H-pyrazol-1-yl)methyl)-2-methoxy-N-((3-methoxy-5,6,7,8-tetrahydronaphthalen-2-yl)sulfonyl)benzamide]",576 nM
15,"COc1ccc(C(C)(C)C)cc1S(=O)(=O)NC(=O)c1ccc(Cn2cccn2)c(Br)c1 [Compound 16, 4-((1H-pyrazol-1-yl)methyl)-3-bromo-N-((5-(tert-butyl)-2-methoxyphenyl)sulfonyl)benzamide]",26 nM
16,"COc1ccc(C(C)(C)C)cc1S(=O)(=O)NC(=O)c1ccc(Cn2cccn2)c(C2CC2)c1 [Compound 17, 4-((1H-pyrazol-1-yl)methyl)-N-((5-(tert-butyl)-2-methoxyphenyl)sulfonyl)-3-cyclopropylbenzamide]",20 nM
17,COc1ccc(C(C)(C)C)cc1S(=O)(=O)NC(=O)c1ccc(Cn2cccn2)c(C#N)c1 [Compound 18],70 nM
18,"COc1cc(C(=O)NS(=O)(=O)c2cc(-n3cccn3)ccc2OC)ccc1Cn1cccn1 [Compound 19, 4-((1H-pyrazol-1-yl)methyl)-3-methoxy-N-((2-methoxy-5-(1H-pyrazol-1-yl)phenyl)sulfonyl)benzamide]",42 nM
